The source of these data is patent US20190192060A1, “DEVICE AND METHOD FOR BLOOD VOLUME MEASUREMENT” (Oregon Health & Science University, priority 2017, published 2019).

The nature of series [1]: in vivo indicator dilution and elimination measured with intravenous optical fiber probe. Conditions: healthy adult rhesus macaques, intravenous injection, reflectance in cephalic vein.
The conditions of series [2]: cited from earlier work.
For series [3] the following is noted: cited from earlier work. The source holds these as a separate data set.

Consider `CC1(C)C(/C=C/C=C/C=C/C=C2\N(CCCCS(=O)(=O)O)c3ccc4ccccc4c3C2(C)C)=[N+](CCCCS(=O)(=O)[O-])c2ccc3ccccc3c21` [ICG, indocyanine green], for which the “time until blood volume indicator values returned to baseline (non-detectable)” value in series [1] was “approximately 10 minutes”. Further, the “time to elimination by the liver” value in series [2] (after mixing in the circulating compartment) is at most 15 min. Moreover, in series [2] (in vivo), the route of excretion entry is “excreted unchanged in the bile”. Moreover, in series [3] (in vivo), the placental transfer entry is listed as “does not cross the placenta”. Moreover, the “harm to the fetus” value in series [3] (used in many pregnant women) is recorded as “without any reports of harm to the fetus”.
